In the supplement of paper PMC8612539:

Tested on: Escherichia coli
Test: minimum inhibitory concentration (MIC)
Procedure: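 Broth microdilution MIC (Sensititre BOPO7F bovine plate, CLSI methods) of 19 antimicrobials against field isolates of P. multocida, M. haemolytica, H. somni (deep nasopharyngeal swabs) and E. coli, Enterococcus spp. (rectal swabs) from weaned dairy heifers. Incubation 16-24 h at 35 C. MIC is the lowest concentration preventing visible growth. Values with <= or > lie at the tested range limits. Trimethoprim-sulfamethoxazole is given as the trimethoprim component of a 1:19 mixture.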

COc1cc(Cc2cnc(N)nc2N)cc(OC)c1OC.Cc1cc(NS(=O)(=O)c2ccc(N)cc2)no1 [trimethoprim-sulfamethoxazole]
Details	minimum inhibitory concentration [µg/mL]
isolate (source animal id): 1	≤ 2
isolate (source animal id): 2	> 2
isolate (source animal id): 3	≤ 2
isolate (source animal id): 4	≤ 2
isolate (source animal id): 5	> 2
isolate (source animal id): 6	> 2
isolate (source animal id): 7	> 2
isolate (source animal id): 8	≤ 2
isolate (source animal id): 9	> 2
isolate (source animal id): 10	> 2
isolate (source animal id): 11	≤ 2
isolate (source animal id): 12	> 2
isolate (source animal id): 13	≤ 2
isolate (source animal id): 14	> 2
isolate (source animal id): 15	≤ 2
isolate (source animal id): 16	≤ 2
isolate (source animal id): 17	> 2
isolate (source animal id): 18	≤ 2
isolate (source animal id): 19	≤ 2
isolate (source animal id): 20	> 2
isolate (source animal id): 21	≤ 2
isolate (source animal id): 22	≤ 2
isolate (source animal id): 23	≤ 2
isolate (source animal id): 24	≤ 2
isolate (source animal id): 25	> 2
isolate (source animal id): 26	≤ 2
isolate (source animal id): 27	> 2
isolate (source animal id): 28	≤ 2
isolate (source animal id): 29	> 2
isolate (source animal id): 30	> 2
isolate (source animal id): 31	> 2
isolate (source animal id): 32	> 2
isolate (source animal id): 33	> 2
isolate (source animal id): 34	≤ 2
isolate (source animal id): 35	> 2
isolate (source animal id): 36	> 2
isolate (source animal id): 37	> 2
isolate (source animal id): 38	> 2
isolate (source animal id): 39	> 2
isolate (source animal id): 40	≤ 2
isolate (source animal id): 41	> 2
isolate (source animal id): 42	> 2
isolate (source animal id): 43	> 2
isolate (source animal id): 44	≤ 2
isolate (source animal id): 45	> 2
isolate (source animal id): 46	≤ 2
isolate (source animal id): 47	> 2
isolate (source animal id): 48	> 2
isolate (source animal id): 49	> 2
isolate (source animal id): 50	> 2
isolate (source animal id): 51	> 2
isolate (source animal id): 52	≤ 2
isolate (source animal id): 53	> 2
isolate (source animal id): 54	≤ 2
isolate (source animal id): 55	≤ 2
isolate (source animal id): 56	≤ 2
isolate (source animal id): 57	> 2
isolate (source animal id): 58	≤ 2
isolate (source animal id): 59	≤ 2
isolate (source animal id): 60	≤ 2
isolate (source animal id): 61	> 2
isolate (source animal id): 62	≤ 2
isolate (source animal id): 63	≤ 2
isolate (source animal id): 64	≤ 2
isolate (source animal id): 65	> 2
isolate (source animal id): 66	≤ 2
isolate (source animal id): 67	≤ 2
isolate (source animal id): 68	≤ 2
isolate (source animal id): 69	≤ 2
isolate (source animal id): 70	≤ 2
isolate (source animal id): 71	≤ 2
isolate (source animal id): 72	≤ 2
isolate (source animal id): 73	≤ 2
isolate (source animal id): 74	≤ 2
isolate (source animal id): 75	≤ 2
isolate (source animal id): 76	> 2
isolate (source animal id): 77	≤ 2
isolate (source animal id): 78	> 2
isolate (source animal id): 79	≤ 2
isolate (source animal id): 80	≤ 2
isolate (source animal id): 81	> 2
isolate (source animal id): 82	≤ 2
isolate (source animal id): 83	≤ 2
isolate (source animal id): 84	≤ 2
isolate (source animal id): 85	≤ 2
isolate (source animal id): 86	> 2
isolate (source animal id): 87	≤ 2
isolate (source animal id): 88	≤ 2
isolate (source animal id): 89	≤ 2
isolate (source animal id): 90	≤ 2
isolate (source animal id): 91	≤ 2
isolate (source animal id): 92	≤ 2
isolate (source animal id): 93	≤ 2
isolate (source animal id): 94	> 2
isolate (source animal id): 95	≤ 2
isolate (source animal id): 96	≤ 2
isolate (source animal id): 97	> 2
isolate (source animal id): 98	≤ 2
isolate (source animal id): 99	≤ 2
isolate (source animal id): 100	≤ 2
isolate (source animal id): 101	> 2
isolate (source animal id): 102	≤ 2
isolate (source animal id): 103	≤ 2
isolate (source animal id): 104	≤ 2
isolate (source animal id): 105	≤ 2
isolate (source animal id): 106	> 2
isolate (source animal id): 107	≤ 2
isolate (source animal id): 108	≤ 2
isolate (source animal id): 109	≤ 2
isolate (source animal id): 110	≤ 2
isolate (source animal id): 111	≤ 2
isolate (source animal id): 112	≤ 2
isolate (source animal id): 113	≤ 2
isolate (source animal id): 114	≤ 2
isolate (source animal id): 115	> 2
isolate (source animal id): 116	≤ 2
isolate (source animal id): 117	≤ 2
isolate (source animal id): 118	≤ 2
isolate (source animal id): 119	> 2
isolate (source animal id): 120	> 2
isolate (source animal id): 121	> 2
isolate (source animal id): 122	> 2
isolate (source animal id): 123	≤ 2
isolate (source animal id): 124	> 2
isolate (source animal id): 125	≤ 2
isolate (source animal id): 126	> 2
isolate (source animal id): 127	> 2
isolate (source animal id): 128	≤ 2
isolate (source animal id): 129	≤ 2
isolate (source animal id): 130	> 2
isolate (source animal id): 131	≤ 2
isolate (source animal id): 132	≤ 2
isolate (source animal id): 133	≤ 2
isolate (source animal id): 134	≤ 2
isolate (source animal id): 135	≤ 2
isolate (source animal id): 136	≤ 2
isolate (source animal id): 137	≤ 2
isolate (source animal id): 138	> 2
isolate (source animal id): 139	> 2
isolate (source animal id): 140	≤ 2
isolate (source animal id): 141	> 2
isolate (source animal id): 142	≤ 2
isolate (source animal id): 143	> 2
isolate (source animal id): 144	≤ 2
isolate (source animal id): 145	> 2
isolate (source animal id): 146	≤ 2
isolate (source animal id): 147	> 2
isolate (source animal id): 148	≤ 2
isolate (source animal id): 149	≤ 2
isolate (source animal id): 150	> 2
isolate (source animal id): 151	≤ 2
isolate (source animal id): 152	≤ 2
isolate (source animal id): 153	≤ 2
isolate (source animal id): 154	≤ 2
isolate (source animal id): 155	≤ 2
isolate (source animal id): 156	> 2
isolate (source animal id): 157	≤ 2
isolate (source animal id): 158	≤ 2
isolate (source animal id): 159	≤ 2
isolate (source animal id): 160	> 2
isolate (source animal id): 161	> 2
isolate (source animal id): 162	≤ 2
isolate (source animal id): 163	≤ 2
isolate (source animal id): 164	≤ 2
isolate (source animal id): 165	≤ 2
isolate (source animal id): 166	≤ 2
isolate (source animal id): 167	≤ 2
isolate (source animal id): 168	≤ 2
isolate (source animal id): 169	≤ 2
isolate (source animal id): 170	≤ 2
isolate (source animal id): 171	≤ 2
isolate (source animal id): 172	≤ 2
isolate (source animal id): 173	≤ 2
isolate (source animal id): 174	≤ 2
isolate (source animal id): 175	≤ 2
isolate (source animal id): 176	≤ 2
isolate (source animal id): 177	≤ 2
isolate (source animal id): 178	≤ 2
isolate (source animal id): 179	≤ 2
isolate (source animal id): 180	≤ 2
isolate (source animal id): 181	≤ 2
isolate (source animal id): 182	≤ 2
isolate (source animal id): 183	≤ 2
isolate (source animal id): 184	≤ 2
isolate (source animal id): 185	≤ 2
isolate (source animal id): 186	≤ 2
isolate (source animal id): 187	≤ 2
isolate (source animal id): 188	> 2
isolate (source animal id): 189	≤ 2
isolate (source animal id): 190	> 2
isolate (source animal id): 191	≤ 2
isolate (source animal id): 192	≤ 2
isolate (source animal id): 193	≤ 2
isolate (source animal id): 194	≤ 2
isolate (source animal id): 195	≤ 2
isolate (source animal id): 196	≤ 2
isolate (source animal id): 197	≤ 2
isolate (source animal id): 198	> 2
isolate (source animal id): 199	≤ 2
isolate (source animal id): 200	≤ 2
isolate (source animal id): 201	≤ 2
isolate (source animal id): 202	≤ 2
isolate (source animal id): 203	≤ 2
isolate (source animal id): 204	≤ 2
isolate (source animal id): 205	≤ 2
isolate (source animal id): 206	≤ 2
isolate (source animal id): 207	≤ 2
isolate (source animal id): 208	≤ 2
isolate (source animal id): 209	≤ 2
isolate (source animal id): 210	≤ 2
isolate (source animal id): 211	≤ 2
isolate (source animal id): 212	≤ 2
isolate (source animal id): 213	≤ 2
isolate (source animal id): 214	≤ 2
isolate (source animal id): 215	≤ 2
isolate (source animal id): 216	> 2
isolate (source animal id): 217	≤ 2
isolate (source animal id): 218	≤ 2
isolate (source animal id): 219	≤ 2
isolate (source animal id): 220	≤ 2
isolate (source animal id): 221	≤ 2
isolate (source animal id): 222	≤ 2
isolate (source animal id): 223	≤ 2
isolate (source animal id): 224	≤ 2
isolate (source animal id): 225	≤ 2
isolate (source animal id): 226	> 2
isolate (source animal id): 227	≤ 2
isolate (source animal id): 228	≤ 2
isolate (source animal id): 229	> 2
isolate (source animal id): 230	≤ 2
isolate (source animal id): 231	≤ 2
isolate (source animal id): 232	≤ 2
isolate (source animal id): 233	≤ 2
isolate (source animal id): 234	≤ 2
isolate (source animal id): 235	≤ 2
isolate (source animal id): 236	≤ 2
isolate (source animal id): 237	≤ 2
isolate (source animal id): 238	≤ 2
isolate (source animal id): 239	≤ 2
isolate (source animal id): 240	≤ 2
isolate (source animal id): 241	≤ 2
isolate (source animal id): 242	≤ 2
isolate (source animal id): 243	≤ 2
isolate (source animal id): 244	≤ 2
isolate (source animal id): 245	≤ 2
isolate (source animal id): 246	≤ 2
isolate (source animal id): 247	≤ 2
isolate (source animal id): 248	≤ 2
isolate (source animal id): 249	≤ 2
isolate (source animal id): 250	≤ 2
isolate (source animal id): 251	≤ 2
isolate (source animal id): 252	≤ 2
isolate (source animal id): 253	≤ 2
isolate (source animal id): 254	≤ 2
isolate (source animal id): 255	≤ 2
isolate (source animal id): 256	≤ 2
isolate (source animal id): 257	≤ 2
isolate (source animal id): 258	≤ 2
isolate (source animal id): 259	> 2
isolate (source animal id): 260	≤ 2
isolate (source animal id): 261	≤ 2
isolate (source animal id): 262	≤ 2
isolate (source animal id): 263	≤ 2
isolate (source animal id): 264	≤ 2
isolate (source animal id): 265	≤ 2
isolate (source animal id): 266	≤ 2
isolate (source animal id): 267	≤ 2
isolate (source animal id): 268	≤ 2
isolate (source animal id): 269	≤ 2
isolate (source animal id): 270	≤ 2
isolate (source animal id): 271	≤ 2
isolate (source animal id): 272	≤ 2
isolate (source animal id): 273	≤ 2
isolate (source animal id): 274	> 2
isolate (source animal id): 275	> 2
isolate (source animal id): 276	≤ 2
isolate (source animal id): 277	≤ 2
isolate (source animal id): 278	≤ 2
isolate (source animal id): 279	≤ 2
isolate (source animal id): 280	≤ 2
isolate (source animal id): 281	≤ 2
isolate (source animal id): 282	≤ 2
isolate (source animal id): 283	≤ 2
isolate (source animal id): 284	≤ 2
isolate (source animal id): 285	≤ 2
isolate (source animal id): 286	> 2
isolate (source animal id): 287	> 2
isolate (source animal id): 288	≤ 2
isolate (source animal id): 289	≤ 2
isolate (source animal id): 290	≤ 2
isolate (source animal id): 291	> 2
isolate (source animal id): 292	> 2
isolate (source animal id): 293	≤ 2
isolate (source animal id): 294	≤ 2
isolate (source animal id): 295	> 2
isolate (source animal id): 296	≤ 2
isolate (source animal id): 297	≤ 2
isolate (source animal id): 298	> 2
isolate (source animal id): 299	≤ 2
isolate (source animal id): 300	≤ 2
isolate (source animal id): 301	≤ 2
isolate (source animal id): 302	≤ 2
isolate (source animal id): 303	≤ 2
isolate (source animal id): 304	> 2
isolate (source animal id): 305	≤ 2
isolate (source animal id): 306	≤ 2
isolate (source animal id): 307	≤ 2
isolate (source animal id): 308	≤ 2
isolate (source animal id): 309	≤ 2
isolate (source animal id): 310	≤ 2
isolate (source animal id): 311	> 2
isolate (source animal id): 312	≤ 2
isolate (source animal id): 313	≤ 2
isolate (source animal id): 314	≤ 2
isolate (source animal id): 315	≤ 2
isolate (source animal id): 316	> 2
isolate (source animal id): 317	> 2
isolate (source animal id): 318	≤ 2
isolate (source animal id): 319	≤ 2
isolate (source animal id): 320	≤ 2
isolate (source animal id): 321	> 2
isolate (source animal id): 322	≤ 2
isolate (source animal id): 323	> 2
isolate (source animal id): 324	≤ 2
isolate (source animal id): 325	> 2
isolate (source animal id): 326	≤ 2
isolate (source animal id): 327	≤ 2
isolate (source animal id): 328	≤ 2
isolate (source animal id): 329	≤ 2
isolate (source animal id): 330	≤ 2
isolate (source animal id): 331	≤ 2
isolate (source animal id): 332	≤ 2
isolate (source animal id): 333	≤ 2
isolate (source animal id): 334	> 2
isolate (source animal id): 335	≤ 2
isolate (source animal id): 336	≤ 2
isolate (source animal id): 337	≤ 2
isolate (source animal id): 338	> 2
isolate (source animal id): 339	≤ 2
isolate (source animal id): 340	≤ 2
isolate (source animal id): 341	≤ 2
